The target in this test is Prolyl endopeptidase (Mus musculus) (UniProt Q9QUR6). In words: mouse PEP inhibitors, selectivity assay for PREPL inhibitor project, biochemical, fluorescence, assay provider data (AID 624482). The conditions noted are these: recombinant PEP, Z-Gly-Pro-AMC fluorescence; at 20 µM; hits give high values.

The structures appear in SMILES notation. The source made the active and inactive calls.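 Rule for the calls: active = inhibition of the enzyme prolyl endopeptidase above 20%; inactive = inhibition at or below 20%.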

Chain of Prolyl endopeptidase (Mus musculus) (Q9QUR6 whole entry, looked up): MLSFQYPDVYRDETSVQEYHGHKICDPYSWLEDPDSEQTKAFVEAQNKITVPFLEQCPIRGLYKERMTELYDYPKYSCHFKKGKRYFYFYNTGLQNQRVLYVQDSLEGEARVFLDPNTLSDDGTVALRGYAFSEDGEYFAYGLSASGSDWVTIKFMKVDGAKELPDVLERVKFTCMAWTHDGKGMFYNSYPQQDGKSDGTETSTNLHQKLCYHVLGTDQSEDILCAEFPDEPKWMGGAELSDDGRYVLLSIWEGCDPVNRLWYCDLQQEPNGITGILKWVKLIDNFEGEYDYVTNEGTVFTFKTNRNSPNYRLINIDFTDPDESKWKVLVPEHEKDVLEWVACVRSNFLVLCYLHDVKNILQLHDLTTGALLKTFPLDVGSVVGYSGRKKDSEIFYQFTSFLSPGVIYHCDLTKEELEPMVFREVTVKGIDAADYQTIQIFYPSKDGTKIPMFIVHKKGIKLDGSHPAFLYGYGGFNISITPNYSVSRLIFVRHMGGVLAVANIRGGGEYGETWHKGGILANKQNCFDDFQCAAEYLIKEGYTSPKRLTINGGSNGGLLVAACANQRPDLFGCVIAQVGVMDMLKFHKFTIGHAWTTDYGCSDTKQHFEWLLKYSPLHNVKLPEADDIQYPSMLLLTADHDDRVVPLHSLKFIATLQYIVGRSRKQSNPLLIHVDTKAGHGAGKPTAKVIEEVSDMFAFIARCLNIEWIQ

One may read the inhibition as the relative decrease from the control value, in per cent. Take `CCOc1ccc(CCNC(=O)c2ccc3c(=O)[nH]c4c(C(=O)NC(C)C)sc(=S)n4c3c2)cc1`: the inhibition was -29% (inactive).
The result for `COc1cc2nc(Nc3ccc(C)c(C)c3)nc(N)c2cc1OC` reads 46%.
Next, `CC(C)Cc1[nH]c(=O)c(C#N)c2c1CCC2`: -17% (inactive); `O=C(Nc1ccc2c(c1)OCCO2)c1cccc2nc3ccccc3nc12`: -26% (inactive); `N#Cc1c2c(c(-c3ccccc3)[nH]c1=O)CCCC2`: -13% (inactive).

Source of the values: PubChem BioAssay AID624482 (The Scripps Research Institute Molecular Screening Center, 2012).
